Results published in PMC10676574, “In-silico and in-vitro screening of Asiatic acid and Asiaticoside A against Cathepsin S enzyme” (BMC Pharmacology & Toxicology, 2023).
Where two headings read alike, the source gives them in different places.

Biological target: T1, Cathepsin S (Homo sapiens, UniProt P25774)
T1 construct: gene CTSS
Experiment: fluorometric cathepsin S inhibitor assay kit (ab185437), Z-VVR-AFC substrate, kinetic mode
Type: biochemical

T1 sequence (P25774 115-331): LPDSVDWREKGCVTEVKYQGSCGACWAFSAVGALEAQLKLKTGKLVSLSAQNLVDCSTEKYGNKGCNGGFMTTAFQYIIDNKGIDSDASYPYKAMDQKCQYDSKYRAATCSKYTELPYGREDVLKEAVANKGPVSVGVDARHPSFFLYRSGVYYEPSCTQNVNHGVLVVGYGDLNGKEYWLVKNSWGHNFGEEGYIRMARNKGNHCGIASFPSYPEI

IC50 (read-out: IC50) [µM]	Molecule	IC50 [µM]
0.667	asiaticoside A	–
–	C[C@H]1[C@H](C)CC[C@]2(C(=O)O)CC[C@]3(C)C(=CC[C@@H]4[C@@]5(C)C[C@@H](O)[C@H](O)[C@@](C)(CO)[C@@H]5CC[C@]43C)[C@H]12 [asiatic acid]	14.6
